Results taken from ChEMBL document CHEMBL5316344, “Homologation of the Alkyl Side Chain of Antimitotic Phenyl 4-(2-Oxo-3-alkylimidazolidin-1-yl)benzenesulfonate Prodrugs Selectively Targeting CYP1A1-Expressing Breast Cancers Improves Their Stability in Rodent Liver Microsomes” (J Med Chem, 2023).

How the values were obtained:
[1] = Drug accumulation in tumor of nude mouse xenografted with human MCF7 cells at 231 kBq, iv administered as C14-lableled compound and assessed as radioactivity and measured at 3 hrs post dose by digital autoradiographic analysis; format: ADME, organism-based, Neoplasm; details: in vivo
[2] = Ratio of drug level in tumor to muscle in nude mouse xenografted with human MCF7 cells at 231 kBq, iv administered as C14-lableled compound and assessed as radioactivity and measured at 3 hrs post dose; format: ADME, organism-based; details: in vivo
[3] = Biodistribution in stomach of OF1 mouse at 231 kBq, iv administered as C14-lableled compound and assessed as radioactivity and measured at 1 hr post dose by digital autoradiographic analysis; format: ADME, organism-based; details: in vivo
[4] = Drug excretion in OF1 mouse urine at 231 kBq, iv administered as C14-lableled compound and assessed as radioactivity and measured at 3 to 6 hrs post dose; format: ADME, organism-based; details: in vivo, time 3-6 hrs
[5] = Biodistribution in liver of OF1 mouse at 231 kBq, iv administered as C14-lableled compound and assessed as radioactivity and measured at 1 hr post dose by digital autoradiographic analysis; format: ADME, organism-based; details: in vivo
[6] = Ratio of drug level in tumor to muscle in nude mouse xenografted with human MCF7 cells at 231 kBq, iv administered as C14-lableled compound and assessed as radioactivity and measured at 1 hr post dose; format: ADME, organism-based; details: in vivo
[7] = Biodistribution in brain of OF1 mouse at 231 kBq, iv administered as C14-lableled compound and assessed as radioactivity and measured at 1 hr post dose by digital autoradiographic analysis; format: ADME, organism-based; details: in vivo
[8] = Biodistribution in muscle of OF1 mouse at 231 kBq, iv administered as C14-lableled compound and assessed as radioactivity and measured at 1 hr post dose by digital autoradiographic analysis; format: ADME, organism-based, Muscle tissue; details: in vivo
[9] = Biodistribution in kidney of nude mouse xenografted with human MCF7 cells at 231 kBq, iv administered as C14-lableled compound and assessed as radioactivity and measured at 3 hrs post dose by digital autoradiographic analysis; format: ADME, organism-based; details: in vivo
[10] = Biodistribution in heart of OF1 mouse at 231 kBq, iv administered as C14-lableled compound and assessed as radioactivity and measured at 1 hr post dose by digital autoradiographic analysis; format: ADME, organism-based; details: in vivo
[11] = Drug excretion in OF1 mouse feces at 231 kBq, iv administered as C14-lableled compound and assessed as radioactivity and measured at 3 to 6 hrs post dose; format: ADME, organism-based; details: in vivo, time 3-6 hrs
[12] = Biodistribution in kidney of OF1 mouse at 231 kBq, iv administered as C14-lableled compound and assessed as radioactivity and measured at 1 hr post dose by digital autoradiographic analysis; format: ADME, organism-based; details: in vivo
[13] = Biodistribution in spleen of OF1 mouse at 231 kBq, iv administered as C14-lableled compound and assessed as radioactivity and measured at 1 hr post dose by digital autoradiographic analysis; format: ADME, organism-based; details: in vivo
[14] = Biodistribution in spleen of nude mouse xenografted with human MCF7 cells at 231 kBq, iv administered as C14-lableled compound and assessed as radioactivity and measured at 3 hrs post dose by digital autoradiographic analysis; format: ADME, organism-based; details: in vivo
[15] = Biodistribution in stomach of nude mouse xenografted with human MCF7 cells at 231 kBq, iv administered as C14-lableled compound and assessed as radioactivity and measured at 3 hrs post dose by digital autoradiographic analysis; format: ADME, organism-based; details: in vivo
[16] = Biodistribution in heart of nude mouse xenografted with human MCF7 cells at 231 kBq, iv administered as C14-lableled compound and assessed as radioactivity and measured at 3 hrs post dose by digital autoradiographic analysis; format: ADME, organism-based; details: in vivo
[17] = Biodistribution in brain of nude mouse xenografted with human MCF7 cells at 231 kBq, iv administered as C14-lableled compound and assessed as radioactivity and measured at 3 hrs post dose by digital autoradiographic analysis; format: ADME, organism-based; details: in vivo
[18] = Biodistribution in muscle of nude mouse xenografted with human MCF7 cells at 231 kBq, iv administered as C14-lableled compound and assessed as radioactivity and measured at 3 hrs post dose by digital autoradiographic analysis; format: ADME, organism-based, Muscle tissue; details: in vivo
[19] = Biodistribution in lungs of OF1 mouse at 231 kBq, iv administered as C14-lableled compound and assessed as radioactivity and measured at 1 hr post dose by digital autoradiographic analysis; format: ADME, organism-based, Lung; details: in vivo
[20] = Drug accumulation in tumor of nude mouse xenografted with human MCF7 cells intravenously at 231 kBq, iv administered as C14-lableled compound and assessed as radioactivity and measured at 1 hr post dose by digital autoradiographic analysis; format: ADME, organism-based, Neoplasm; details: in vivo
[21] = Biodistribution in lungs of nude mouse xenografted with human MCF7 cells at 231 kBq, iv administered as C14-lableled compound and assessed as radioactivity and measured at 3 hrs post dose by digital autoradiographic analysis; format: ADME, organism-based, Lung; details: in vivo
[22] = Biodistribution in heart of OF1 mouse at 292 kBq, iv administered as C14-lableled compound and assessed as radioactivity and measured at 1 hr post dose by digital autoradiographic analysis; format: ADME, organism-based; details: in vivo
[23] = Biodistribution in kidney of OF1 mouse at 292 kBq, iv administered as C14-lableled compound and assessed as radioactivity and measured at 1 hr post dose by digital autoradiographic analysis; format: ADME, organism-based; details: in vivo
[24] = Biodistribution in stomach of nude mouse xenografted with human MCF7 cells at 292 kBq, iv administered as C14-lableled compound and assessed as radioactivity and measured at 6 hrs post dose by digital autoradiographic analysis; format: ADME, organism-based; details: in vivo
[25] = Biodistribution in spleen of nude mouse xenografted with human MCF7 cells at 292 kBq, iv administered as C14-lableled compound and assessed as radioactivity and measured at 6 hrs post dose by digital autoradiographic analysis; format: ADME, organism-based; details: in vivo
[26] = Biodistribution in lungs of OF1 mouse at 292 kBq, iv administered as C14-lableled compound and assessed as radioactivity and measured at 1 hr post dose by digital autoradiographic analysis; format: ADME, organism-based, Lung; details: in vivo
[27] = Biodistribution in stomach of OF1 mouse at 292 kBq, iv administered as C14-lableled compound and assessed as radioactivity and measured at 1 hr post dose by digital autoradiographic analysis; format: ADME, organism-based; details: in vivo
[28] = Drug excretion in OF1 mouse feces at 292 kBq, iv administered as C14-lableled compound and assessed as radioactivity and measured at 3 to 6 hrs post dose; format: ADME, organism-based; details: in vivo, time 3-6 hrs
[29] = Biodistribution in kidney of nude mouse xenografted with human MCF7 cells at 292 kBq, iv administered as C14-lableled compound and assessed as radioactivity and measured at 6 hrs post dose by digital autoradiographic analysis; format: ADME, organism-based; details: in vivo
[30] = Biodistribution in brain of nude mouse xenografted with human MCF7 cells at 292 kBq, iv administered as C14-lableled compound and assessed as radioactivity and measured at 6 hrs post dose by digital autoradiographic analysis; format: ADME, organism-based; details: in vivo
[31] = Biodistribution in heart of nude mouse xenografted with human MCF7 cells at 292 kBq, iv administered as C14-lableled compound and assessed as radioactivity and measured at 6 hrs post dose by digital autoradiographic analysis; format: ADME, organism-based; details: in vivo
[32] = Biodistribution in muscle of nude mouse xenografted with human MCF7 cells at 292 kBq, iv administered as C14-lableled compound and assessed as radioactivity and measured at 6 hrs post dose by digital autoradiographic analysis; format: ADME, organism-based, Muscle tissue; details: in vivo
[33] = Drug excretion in OF1 mouse urine at 292 kBq, iv administered as C14-lableled compound and assessed as radioactivity and measured at 3 to 6 hrs post dose; format: ADME, organism-based; details: in vivo, time 3-6 hrs
[34] = Biodistribution in spleen of OF1 mouse at 292 kBq, iv administered as C14-lableled compound and assessed as radioactivity and measured at 1 hr post dose by digital autoradiographic analysis; format: ADME, organism-based; details: in vivo
[35] = Biodistribution in lung of nude mouse xenografted with human MCF7 cells at 292 kBq, iv administered as C14-lableled compound and assessed as radioactivity and measured at 6 hrs post dose by digital autoradiographic analysis; format: ADME, organism-based; details: in vivo
[36] = Biodistribution in liver of OF1 mouse at 292 kBq, iv administered as C14-lableled compound and assessed as radioactivity and measured at 1 hr post dose by digital autoradiographic analysis; format: ADME, organism-based; details: in vivo
[37] = Biodistribution in brain of OF1 mouse at 292 kBq, iv administered as C14-lableled compound and assessed as radioactivity and measured at 1 hr post dose by digital autoradiographic analysis; format: ADME, organism-based; details: in vivo
[38] = Biodistribution in muscle of OF1 mouse at 292 kBq, iv administered as C14-lableled compound and assessed as radioactivity and measured at 1 hr post dose by digital autoradiographic analysis; format: ADME, organism-based, Muscle tissue; details: in vivo

CCCCN1CCN(c2ccc(S(=O)(=O)Oc3cc(OC)c(OC)c(OC)c3)cc2)[14C]1=O
Drug uptake [1]: 0.8% | Ratio [2]: 2.5 | Drug uptake [3]: Active | Drug excretion [4]: Active | Drug uptake [5]: Active | Ratio [6]: 1.1 | Drug uptake [7]: Active | Drug uptake [8]: Active | Drug uptake [9]: Not Active | Drug uptake [10]: Active | Drug excretion [11]: Active | Drug uptake [12]: Active | Drug uptake [13]: Active | Drug uptake [14]: Not Active | Drug uptake [15]: Not Active | Drug uptake [16]: Not Active | Drug uptake [17]: Not Active | Drug uptake [18]: Not Active | Drug uptake [19]: Active | Drug uptake [20]: 1.6% | Drug uptake [21]: Not Active

COc1cc(OS(=O)(=O)c2ccc(N3CCN[14C]3=O)cc2)cc(OC)c1OC
Drug uptake [22]: Active | Drug uptake [23]: Active | Drug uptake [24]: Not Active | Drug uptake [25]: Not Active | Drug uptake [26]: Active | Drug uptake [27]: Active | Drug excretion [28]: Active | Drug uptake [29]: Not Active | Drug uptake [30]: Not Active | Drug uptake [31]: Not Active | Drug uptake [32]: Not Active | Drug excretion [33]: Active | Drug uptake [34]: Active | Drug uptake [35]: Not Active | Drug uptake [36]: Active | Drug uptake [37]: Active | Drug uptake [38]: Active
